Measured values published in US11051515B2, “3-acyl-benzamides and their use as herbicides” (Bayer Aktiengesellschaft, priority 2017, dated 2021).

What was measured:
ALOMY [1] = experiment: Pre-emergence action against ALOMY; format: in vivo, Alopecurus myosuroides; conditions: dosage 320 g/ha, pre-emergence, scored visually after 3 weeks vs untreated controls, 100% = plants have died, 0% = like control plants
Method in brief: (§1)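 Seeds sown in sandy loam in wood-fiber pots and covered with soil. Greenhouse growth; visual damage scored after 3 weeks versus untreated controls (100% = dead, 0% = like control).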

AVEFA [2] = experiment: Pre-emergence action against AVEFA; format: in vivo, Avena fatua; conditions: dosage 320 g/ha, scored visually after 3 weeks vs untreated controls
Method in brief: as §1

ECHCG [3] = experiment: Pre-emergence action against ECHCG; format: in vivo, Echinochloa crus-galli; conditions: pre-emergence, dosage 320 g/ha, scored visually after 3 weeks vs untreated controls
Method in brief: as §1

SETVI [4] = experiment: Pre-emergence action against SETVI; format: in vivo, Setaria viridis; conditions: pre-emergence, dosage 320 g/ha, scored visually after 3 weeks vs untreated controls
Method in brief: as §1

ABUTH [5] = experiment: Pre-emergence action against ABUTH; format: in vivo, Abutilon theophrasti; conditions: pre-emergence, dosage 320 g/ha, scored visually after 3 weeks vs untreated controls
Method in brief: as §1

AMARE [6] = experiment: Pre-emergence action against AMARE; format: in vivo, Amaranthus retroflexus; conditions: pre-emergence, dosage 320 g/ha, scored visually after 3 weeks vs untreated controls
Method in brief: as §1

MATIN [7] = experiment: Pre-emergence action against MATIN; format: in vivo, Matricaria inodora; conditions: Dosage 320 g/ha, pre-emergence
Method in brief: as §1

STEME [8] = experiment: Pre-emergence action against STEME; format: in vivo, Stellaria media; conditions: Dosage 320 g/ha, pre-emergence
Method in brief: as §1

VIOTR [9] = experiment: Pre-emergence action against VIOTR; format: in vivo, Viola tricolor; conditions: Dosage 320 g/ha, pre-emergence
Method in brief: as §1

VERPE [10] = experiment: Pre-emergence action against VERPE; format: in vivo, Veronica persica; conditions: Dosage 320 g/ha, pre-emergence
Method in brief: as §1

ALOMY [11] = experiment: Post-emergence action against ALOMY; format: in vivo, Alopecurus myosuroides; conditions: Dosage 80 g/ha, post-emergence
Procedure: (§2) Seeds of monocotyledonous and dicotyledonous weed and crop plants are laid out in sandy loam soil in wood-fiber pots, covered with soil and cultivated in a greenhouse under good growth conditions. 2 to 3 weeks after sowing, the test plants are treated at the one-leaf stage. The compounds of the invention, formulated in the form of wettable powders (WP) or as emulsion concentrates (EC), are then sprayed onto the green parts of the plants in the form of an aqueous suspension or emulsion at a water application rate equating to […], with addition of 0.2% wetting agent. After the test plants have been left to stand in the greenhouse under optimal growth conditions for about 3 weeks, the action of the preparations is assessed visually in comparison to untreated controls (herbicidal action in percent (%): 100% activity=the plants have died, 0% activity=like control plants). […] At the same time, inventive compounds leave Gramineae crops such as barley, wheat, rye, millet/Sorghum, corn or rice virtually undamaged when applied post-emergence, even at high active ingredient dosages. In addition, some substances are also harmless to dicotyledonous crops such as soya, cotton, oilseed rape, sugar beet or potatoes. Some of the compounds according to the invention have high selectivity and are therefore suitable for controlling unwanted vegetation in agricultural crops by the post-emergence method. The data of Tables B18 to B34 below illustrate, in an exemplary manner, the […] herbicidal action of the compounds according to the invention, the herbicidal activity being stated in percent.

AVEFA [12] = experiment: Post-emergence action against AVEFA; format: in vivo, Avena fatua; conditions: post-emergence, dosage 80 g/ha, visual assessment about 3 weeks after treatment vs untreated controls
Procedure: as §2

ECHCG [13] = experiment: Post-emergence action against ECHCG; format: in vivo, Echinochloa crus-galli; conditions: post-emergence, dosage 80 g/ha, visual assessment about 3 weeks after treatment vs untreated controls
Method in brief: (§3)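 Post-emergence foliar spray on greenhouse plants at the one-leaf stage, using wettable-powder or emulsion-concentrate formulations in water (600 to […], plus 0.2% wetting agent). Damage scored by eye roughly 3 weeks later against untreated plants: 0% = like control, 100% = dead.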

SETVI [14] = experiment: Post-emergence action against SETVI; format: in vivo, Setaria viridis; conditions: post-emergence, dosage 80 g/ha, visual assessment about 3 weeks after treatment vs untreated controls
Method in brief: as §3

ABUTH [15] = experiment: Post-emergence action against ABUTH; format: in vivo, Abutilon theophrasti; conditions: post-emergence, dosage 80 g/ha, visual assessment about 3 weeks after treatment vs untreated controls
Method in brief: as §3

AMARE [16] = experiment: Post-emergence action against AMARE; format: in vivo, Amaranthus retroflexus; conditions: post-emergence, dosage 80 g/ha, visual assessment about 3 weeks after treatment vs untreated controls
Method in brief: as §3

MATIN [17] = experiment: Post-emergence action against MATIN; format: in vivo, Matricaria inodora; conditions: post-emergence, dosage 80 g/ha, visual assessment about 3 weeks after treatment vs untreated controls
Method in brief: as §3

PHBPU [18] = experiment: Post-emergence action against PHBPU; format: in vivo, Pharbitis purpurea; conditions: post-emergence, dosage 80 g/ha
Method in brief: as §3

STEME [19] = experiment: Post-emergence action against STEME; format: in vivo, Stellaria media; conditions: post-emergence, dosage 80 g/ha
Method in brief: as §3

VIOTR [20] = experiment: Post-emergence action against VIOTR; format: in vivo, Viola tricolor; conditions: post-emergence, dosage 80 g/ha
Method in brief: as §3

VERPE [21] = experiment: Post-emergence action against VERPE; format: in vivo, Veronica persica; conditions: dosage 80 g/ha
Method in brief: as §3

CYPES [22] = experiment: Pre-emergence action against CYPES; format: in vivo, Cyperus esculentus; conditions: pre-emergence, dosage 320 g/ha, scored visually after 3 weeks vs untreated controls
Method in brief: as §1

PHBPU [23] = experiment: Pre-emergence action against PHBPU; format: in vivo, Pharbitis purpurea; conditions: Dosage 320 g/ha, pre-emergence
Method in brief: as §1

POLCO = experiment: Pre-emergence action against POLCO; format: in vivo, Polygonum convolvulus; conditions: Dosage 320 g/ha, pre-emergence
Method in brief: as §1

CYPES [24] = experiment: Post-emergence action against CYPES; format: in vivo, Cyperus esculentus; conditions: post-emergence, dosage 80 g/ha, visual assessment about 3 weeks after treatment vs untreated controls
Method in brief: as §3

CSc1ccc(C(=O)Nc2nnnn2C)c(Cl)c1C(=O)C1CC1 [1-123]
100%: pest or weed control at 320 g/ha (ECHCG [3]; Echinochloa crus-galli, 504 h, read-out: Pre-emergence action against ECHCG (herbicidal activity)) | pest or weed control at 320 g/ha (SETVI [4]; Setaria viridis, 504 h, read-out: SETVI (Table B8, pre-emergence herbicidal activity)) | pest or weed control at 320 g/ha (AMARE [6]; Amaranthus retroflexus, 504 h, read-out: Pre-emergence action against AMARE (herbicidal activity)) | pest or weed control at 320 g/ha (MATIN [7]; Tripleurospermum inodorum, 504 h) | pest or weed control at 320 g/ha (VIOTR [9]; Viola tricolor, 504 h) | pest or weed control at 320 g/ha (VERPE [10]; Veronica persica, 504 h) | pest or weed control at 80 g/ha (AVEFA [12]; Avena fatua, 504 h, read-out: Post-emergence action against AVEFA (herbicidal action in percent)) | pest or weed control at 80 g/ha (ECHCG [13]; Echinochloa crus-galli, 504 h, read-out: Post-emergence action against ECHCG (herbicidal action in percent)) | pest or weed control at 80 g/ha (SETVI [14]; Setaria viridis, 504 h, read-out: Post-emergence action against SETVI (herbicidal action in percent)) | pest or weed control at 80 g/ha (ABUTH [15]; Abutilon theophrasti, 504 h, read-out: Post-emergence action against ABUTH (herbicidal action in percent)) | pest or weed control at 80 g/ha (AMARE [16]; Amaranthus retroflexus, 504 h, read-out: Post-emergence action against AMARE (herbicidal action in percent)) | pest or weed control at 80 g/ha (MATIN [17]; Tripleurospermum inodorum, 504 h, read-out: Post-emergence action against MATIN (herbicidal action in percent)) | pest or weed control at 80 g/ha (STEME [19]; Stellaria media, 504 h) | pest or weed control at 80 g/ha (VIOTR [20]; Viola tricolor, 504 h) | pest or weed control at 80 g/ha (VERPE [21]; Veronica persica, 504 h)
80%: pest or weed control at 320 g/ha (AVEFA [2]; Avena fatua, 504 h, read-out: Pre-emergence action against AVEFA (herbicidal activity)) | pest or weed control at 80 g/ha (ALOMY [11]; Alopecurus myosuroides, 504 h)
90%: pest or weed control at 320 g/ha (ALOMY [1]; Alopecurus myosuroides, 504 h, read-out: Pre-emergence action against ALOMY (herbicidal activity in percent)) | pest or weed control at 320 g/ha (ABUTH [5]; Abutilon theophrasti, 504 h, read-out: Pre-emergence action against ABUTH (herbicidal activity)) | pest or weed control at 320 g/ha (STEME [8]; Stellaria media, 504 h) | pest or weed control at 80 g/ha (PHBPU [18]; Ipomoea purpurea, 504 h)

CCn1nnnc1NC(=O)c1ccc(SC)c(C(C)=O)c1Cl [2-121]
80%: Pre-emergence action against PHBPU (PHBPU [23]) | Post-emergence action against ALOMY (ALOMY [11]) | Post-emergence action against AVEFA (herbicidal action in percent) (AVEFA [12]) | Post-emergence action against CYPES (herbicidal action in percent) (CYPES [24])
90%: Pre-emergence action against ALOMY (herbicidal activity in percent) (ALOMY [1]) | Pre-emergence action against AVEFA (herbicidal activity) (AVEFA [2]) | Pre-emergence action against CYPES (herbicidal activity) (CYPES [22]) | SETVI (Table B8, pre-emergence herbicidal activity) (SETVI [4]) | Pre-emergence action against STEME (STEME [8]) | Post-emergence action against SETVI (herbicidal action in percent) (SETVI [14])
100: Post-emergence action against VIOTR (VIOTR [20]) | Post-emergence action against VERPE (VERPE [21])
90: Post-emergence action against PHBPU (PHBPU [18]) | Post-emergence action against STEME (STEME [19])
100%: Pre-emergence action against ECHCG (herbicidal activity) (ECHCG [3]) | Pre-emergence action against ABUTH (herbicidal activity) (ABUTH [5]) | Pre-emergence action against AMARE (herbicidal activity) (AMARE [6]) | Pre-emergence action against MATIN (MATIN [7]) | Pre-emergence action against POLCO (POLCO) | Pre-emergence action against VIOTR (VIOTR [9]) | Pre-emergence action against VERPE (VERPE [10]) | Post-emergence action against ECHCG (herbicidal action in percent) (ECHCG [13]) | Post-emergence action against ABUTH (herbicidal action in percent) (ABUTH [15]) | Post-emergence action against AMARE (herbicidal action in percent) (AMARE [16]) | Post-emergence action against MATIN (herbicidal action in percent) (MATIN [17])

CCCn1nnnc1NC(=O)c1ccc(S(C)(=O)=O)c(C(=O)C2CC2)c1Cl [3-129]
80%: Post-emergence action against CYPES (herbicidal action in percent) (CYPES [24])
100: Post-emergence action against PHBPU (PHBPU [18]) | Post-emergence action against STEME (STEME [19]) | Post-emergence action against VIOTR (VIOTR [20]) | Post-emergence action against VERPE (VERPE [21])
100%: Pre-emergence action against AVEFA (herbicidal activity) (AVEFA [2]) | Pre-emergence action against ECHCG (herbicidal activity) (ECHCG [3]) | SETVI (Table B8, pre-emergence herbicidal activity) (SETVI [4]) | Pre-emergence action against ABUTH (herbicidal activity) (ABUTH [5]) | Pre-emergence action against AMARE (herbicidal activity) (AMARE [6]) | Pre-emergence action against MATIN (MATIN [7]) | Pre-emergence action against STEME (STEME [8]) | Pre-emergence action against VIOTR (VIOTR [9]) | Pre-emergence action against VERPE (VERPE [10]) | Post-emergence action against ECHCG (herbicidal action in percent) (ECHCG [13]) | Post-emergence action against SETVI (herbicidal action in percent) (SETVI [14]) | Post-emergence action against MATIN (herbicidal action in percent) (MATIN [17])
90%: Pre-emergence action against ALOMY (herbicidal activity in percent) (ALOMY [1]) | Pre-emergence action against CYPES (herbicidal activity) (CYPES [22]) | Pre-emergence action against PHBPU (PHBPU [23]) | Post-emergence action against ALOMY (ALOMY [11]) | Post-emergence action against AVEFA (herbicidal action in percent) (AVEFA [12]) | Post-emergence action against ABUTH (herbicidal action in percent) (ABUTH [15]) | Post-emergence action against AMARE (herbicidal action in percent) (AMARE [16])

CCCn1nnnc1NC(=O)c1ccc(C(F)(F)F)c(C(=O)C2CC2)c1Cl [3-141]
90%: Pre-emergence action against ALOMY (herbicidal activity in percent) (ALOMY [1]) | Pre-emergence action against POLCO (POLCO)
80%: Pre-emergence action against AVEFA (herbicidal activity) (AVEFA [2]) | Post-emergence action against ALOMY (ALOMY [11]) | Post-emergence action against CYPES (herbicidal action in percent) (CYPES [24]) | Post-emergence action against ABUTH (herbicidal action in percent) (ABUTH [15])
100%: Pre-emergence action against ECHCG (herbicidal activity) (ECHCG [3]) | SETVI (Table B8, pre-emergence herbicidal activity) (SETVI [4]) | Pre-emergence action against ABUTH (herbicidal activity) (ABUTH [5]) | Pre-emergence action against AMARE (herbicidal activity) (AMARE [6]) | Pre-emergence action against MATIN (MATIN [7]) | Pre-emergence action against STEME (STEME [8]) | Pre-emergence action against VIOTR (VIOTR [9]) | Pre-emergence action against VERPE (VERPE [10]) | Post-emergence action against AVEFA (herbicidal action in percent) (AVEFA [12]) | Post-emergence action against ECHCG (herbicidal action in percent) (ECHCG [13]) | Post-emergence action against SETVI (herbicidal action in percent) (SETVI [14]) | Post-emergence action against AMARE (herbicidal action in percent) (AMARE [16]) | Post-emergence action against MATIN (herbicidal action in percent) (MATIN [17])
100: Post-emergence action against PHBPU (PHBPU [18]) | Post-emergence action against STEME (STEME [19]) | Post-emergence action against VIOTR (VIOTR [20]) | Post-emergence action against VERPE (VERPE [21])
